In brackets after ≈: the same amount, converted by molar mass. Read-outs that look alike come from different tables or passages of the source.
How the values were obtained:
E. coli [1] = settings: Journal of the American Chemical Society 2002, 124, 9022-3, cited from earlier work
[2] = cited from earlier work
[3] = system: tetracycline resistant E. coli; type: cell-based, Escherichia coli; settings: for MIC: single agent, Table 5; for MIC (μM) of amphiphile alone: tetracycline resistant E. coli, Tables 6 and 7
From the text: (§1) Certain aspects are drawn to a method for increasing or enhancing the antimicrobial activity of an antimicrobial agent. As used herein, the “antimicrobial activity” of an antimicrobial agent is defined as the property of a substance to inhibit the growth and reproduction of a microbial organism or to kill it. Common terms generally applied to bacteria are bacteriostatic (stops growth) and bactericidal (kills bacteria). Depending on the concentrations applied, microbial growth can be slowed or stopped in comparison to concurrent experiments conducted in the absence of an antimicrobial agent. Depending on the concentrations applied, additional microbe death can occur in comparison to concurrent experiments conducted in the absence of an antimicrobial agent. […] The MIC is the lowest concentration of any agent having antimicrobial activity that inhibits the growth of a microorganism as judged by visual inspection. MIC can be determined by inoculating media with the organism and adding the antimicrobial agent diluted successively in half.
(§2) Among the organisms studied are several strains of the bacterium E. coli.
N,N′-Dibenzyl-4,13-diaza-18-crown-6 is referred to in the table as dibenzyldiaza-18-crown-6.
(§3) Minimal Inhibitory Concentration (MIC) Procedure. […] Prepare initial concentration of all the compounds required. • 5. […] Vortex each test tube for 2-3 seconds. • 11.

K-12 E. coli [4] = assay: Combination of amphiphile and antibiotic against K-12 E. coli
Experimental: (§6) Steps 1-7, described in the MIC procedure, shown in Example 2, were followed. • 2. While the E. coli grew, the appropriate volume of compound was added to each test tube. • 3. Antibiotics were added at the required volume of solution to obtain the desired concentration in each test tube. […] Each test tube was vortexed for 2-3 seconds. • 5. Steps 10-12 from the MIC procedure, shown in Example 2, were then executed.

DH5α E. coli [5] = assay: Inhibitory concentration (IC50) to DH5α E. coli cells (FIG. 4); type: cell-based, Escherichia coli; settings: DH5α E. coli, FIG. 4
From the text: Two commonly used abbreviations are LD50 and IC50. The former is the concentration of an agent that comprises a lethal dose to 50% of the organism under study. The latter is the concentration of agent that inhibits growth of 50% of the organism under study. […] The abscissa represents the number of (CH2) groups in spacer chains. The ordinate is logarithmic and reflects the concentrations (in μM) of the various lariat ethers used.

HEK-293 cells = assay: MTT assay of toxicity to HEK-293 cells
Experimental: The toxicity of C6. C8, C10. C11 and C14 lariat ethers to HEK-293 cells was determined by using an MTT assay. […] The abscissa is a logarithmic scale for the concentrations ranging from 1 μM to 1000 μM (1 mM) used in the experiment. The ordinate represents percent survival of HEK-293 cells.
Growth medium containing DMEM with high glucose (ATCC). 10% fetal bovine serum (FBS: Sigma-Aldrich) and 10 μg/mL of blasticidin (Thermo-Fischer) was prepared. HEK 293 cells were thawed out from cryo-preserved samples in 10 mL growth media, centrifuged at 500 rpm for 10 minutes to remove preservative. The cells were then resuspended in fresh growth medium and cultured using a T-75 flask (Thermo-Fischer) at 37° C. and 5% CO2. Cells were monitored for confluence and growth medium was replaced every 48 h, until cells were placed onto a 96-well plate for toxicity studies.
After reaching 80-90% confluence, cells were trypsinized and suspended in media containing DMEM and 10% FBS (no antibiotics). The cells were counted on a hemacytometer and plated at a density of 20,000 cells per well in a 96-well plate and grown for 24 hours to reach 60-70% confluence. DMSO stocks of C6, C8, C10, C11 and C14 diaza-18-crown-6 lariat ethers were prepared at […] and diluted 1:10 to get working concentrations of 20 mM, 2 mM, and 0.2 mM. Each stock was further diluted […] into DMEM supplemented with 10% FBS to get final concentrations of 1 mM, 0.1 mM, 0.01 mM (10 μM) and 0.001 mM (1 μM). The original media was then removed from the cells and replaced with 200 μL media containing the desired concentration of compound. Three wells were used for each concentration providing experimental triplicates. […] The absorbance was measured at 570 nm and nonspecific absorbance was corrected at 650 nm, using SpectraMax340 micro plate reader.
The experiment was performed in triplicate and the average of percent survival of three experiments was determined. […] The lethal dose 50 (LD50) for each compound was calculated by using the equation for a logarithmic regression curve.

K-12 E. coli [6] = assay: MIC of single agents against K-12 E. coli
DH5α E. coli [7] = assay: Combination of lariat ether and antibiotic against DH5α E. coli; settings: 0.4 vol-% DMSO
Experimental: The volume of water added was between 12 to 0.5 μL. The volume of water added was not constant but the volume of media was changed so that the total volume was kept constant at 2 mL.
as §6

B. stubtilis = assay: MIC determination, B. subtilis (Table 1); type: cell-based, Bacillus subtilis; settings: single agent
From the text: (§4) Certain aspects are drawn to a method for increasing or enhancing the antimicrobial activity of an antimicrobial agent. As used herein, the “antimicrobial activity” of an antimicrobial agent is defined as the property of a substance to inhibit the growth and reproduction of a microbial organism or to kill it. Common terms generally applied to bacteria are bacteriostatic (stops growth) and bactericidal (kills bacteria). Depending on the concentrations applied, microbial growth can be slowed or stopped in comparison to concurrent experiments conducted in the absence of an antimicrobial agent. Depending on the concentrations applied, additional microbe death can occur in comparison to concurrent experiments conducted in the absence of an antimicrobial agent. The results of minimum inhibitory concentration (MIC) evaluations and growth curves are presented herein and the conditions are specified. The MIC is the lowest concentration of any agent having antimicrobial activity that inhibits the growth of a microorganism as judged by visual inspection. MIC can be determined by inoculating media with the organism and adding the antimicrobial agent diluted successively in half. […] Reference herein to increasing or enhancing activity, efficacy, potency, and the like are used interchangeably to mean that when the synthetic amphiphile is present, the ability of the antimicrobial agent to inhibit the growth of or to kill an organism will be manifested at a concentration lower than would be required to achieve the same results in the absence of said synthetic amphiphile.
(§5) Among the organisms studied are several strains of the bacterium E. coli. […] Experiments were conducted to determine the MIC values for the synthetic amphiphiles known as lariat ethers according to the procedures described in Antimicrobial M07-A9: Methods for Dilution Antimicrobial Susceptibility Tests for Bacteria that Grow Aerobically; Clinical and Laboratory Standards Institute, 2012; Vol. 32, 67 pp. MIC values so determined for several lariat ethers and for several antibiotics are shown in Table 1.

S. cerevisiae = assay: MIC determination, S. cerevisiae (Table 1); type: cell-based, Saccharomyces cerevisiae; settings: single agent
From the text: as §4, §5

[8] = system: tetracycline resistant E. coli
Experimental: • 1. Steps 1-7, described in the MIC procedure, shown in Example 2, were followed. • 2. While the E. coli grew, the appropriate volume of compound was added to each test tube. • 3. Antibiotics were added at the required volume of solution to obtain the desired concentration in each test tube. […] Each test tube was vortexed for 2-3 seconds. • 5. Steps 10-12 from the MIC procedure, shown in Example 2, were then executed.

E. coli [9] = assay: MIC determination, E. coli (Table 1); type: cell-based, Escherichia coli; settings: single agent
From the text: as §1, §2, §3

DH5α E. coli [10] = assay: MIC of single agents against DH5α E. coli; type: cell-based, Escherichia coli
From the text: as §1, §2, §3

SMILES: c1ccc(CN2CCOCCOCCN(CCCCCCCCN3CCOCCOCCN(CCCCCCCCN4CCOCCOCCN(Cc5ccccc5)CCOCCOCC4)CCOCCOCC3)CCOCCOCC2)cc1 [C8 hydraphile]
- toxicity to E. coli (E. coli [1]; listed as C8 benzyl hydraphile): did not
- toxicity to E. coli (E. coli [1]; listed as hydraphile having —(CH2)8— spacers): did not exhibit toxicity
- cation transport in liposome membranes ([2]; DMPC, DOPC, or DEPC membranes): failed to transport
- MIC [3]: 250 ± 10 µM (≈ 297 µg/mL)
- MIC (μM) of amphiphile alone [3]: 250 µM

SMILES: c1ccc(CN2CCOCCOCCN(CCCCCCCCCCN3CCOCCOCCN(CCCCCCCCCCN4CCOCCOCCN(Cc5ccccc5)CCOCCOCC4)CCOCCOCC3)CCOCCOCC2)cc1
- cation transport in liposome membranes ([2]; thickest DEPC membranes): nearly inactive
- MIC [3]: 35 ± 5 µM (≈ 43.5 µg/mL)
- MIC (μM) of amphiphile alone [3]: 35 µM

SMILES: CCCCCCCCCCCN1CCOCCOCCN(CCCCCCCCCCC)CCOCCOCC1 [C11 lariat ether, N,N′-di-n-undecyl-4,13-diaza-18-crown-6]
- Fold Enhancement (K-12 E. coli [4]; Rifampicin with 6 μM C11 lariat ether): 2 fold
- Fold Enhancement (K-12 E. coli [4]; Tetracycline with 6 μM C11 lariat ether): ~2 fold
- IC50 (DH5α E. coli [5]): 12 µM
- LD50 to HEK-293 (HEK-293 cells): 22 µM
- MIC (μM) of amphiphile alone (K-12 E. coli [6]): 24 µM
- MIC [3]: 24 µM (≈ 13.7 µg/mL)
- MIC (μM) of amphiphile alone [3]: 24 µM
- Fold Enhancement (DH5α E. coli [7]; rifampicin with 8 μM n-C11 lariat ether): 4 fold
- Fold Enhancement (DH5α E. coli [7]; rifampicin with 12 μM n-C11 lariat ether): 10 fold
- Fold Enhancement (DH5α E. coli [7]; rifampicin with 16 μM n-C11 lariat ether): 10 fold
- Fold Enhancement (DH5α E. coli [7]; rifampicin with 18 μM n-C11 lariat ether): 20 fold
- Fold Enhancement (DH5α E. coli [7]; tetracycline with 4 μM n-C11 lariat ether): 4 fold
- Fold Enhancement (DH5α E. coli [7]; tetracycline with 12 μM n-C11 lariat ether): 12 fold
- Fold Enhancement (DH5α E. coli [7]; tetracycline with 16 μM n-C11 lariat ether): 48 fold
- Fold Enhancement (DH5α E. coli [7]; tetracycline with 18 μM n-C11 lariat ether): 8 fold
- MIC (μM) B. stubtilis (B. stubtilis): 9 µM (≈ 5.14 µg/mL)
- MIC (μM) S. cerevisiae (S. cerevisiae): 1.5 µM (≈ 0.856 µg/mL)
- Fold Enhancement ([8]; Tetracycline with 8 μM C11 lariat ether): 5 fold
- Fold Enhancement ([8]; Tetracycline with 12 μM C11 lariat ether): 10 fold
- Fold Enhancement ([8]; Tetracycline with 16 μM C11 lariat ether): 10 fold
- Fold Enhancement ([8]; Tetracycline with 18 μM C11 lariat ether): 10 fold
- MIC (E. coli [9]): 24 µM (≈ 13.7 µg/mL)
- MIC (μM) of lariat ether alone (DH5α E. coli [10]; DH5α E. coli, Tables 2 and 3): 24 µM
- MIC to DH5α E. coli (DH5α E. coli [10]; single agent, values of the running text): 24 µM
